“And” between values parts separate entries of the source, which are not always exact repeats. Identical values can stand only once.
Legend:
TEC = target: T1, TEC (Homo sapiens, UniProt P42680); experiment: standard kinase inhibition assay performed by Nanosyn; format: biochemical; settings: [Enzyme] 4.6 nM, [ATP] 12 μM, inc time 1 hr
T1 construct: purchased Millipore 14-801
T1 sequence (P42680 1-631): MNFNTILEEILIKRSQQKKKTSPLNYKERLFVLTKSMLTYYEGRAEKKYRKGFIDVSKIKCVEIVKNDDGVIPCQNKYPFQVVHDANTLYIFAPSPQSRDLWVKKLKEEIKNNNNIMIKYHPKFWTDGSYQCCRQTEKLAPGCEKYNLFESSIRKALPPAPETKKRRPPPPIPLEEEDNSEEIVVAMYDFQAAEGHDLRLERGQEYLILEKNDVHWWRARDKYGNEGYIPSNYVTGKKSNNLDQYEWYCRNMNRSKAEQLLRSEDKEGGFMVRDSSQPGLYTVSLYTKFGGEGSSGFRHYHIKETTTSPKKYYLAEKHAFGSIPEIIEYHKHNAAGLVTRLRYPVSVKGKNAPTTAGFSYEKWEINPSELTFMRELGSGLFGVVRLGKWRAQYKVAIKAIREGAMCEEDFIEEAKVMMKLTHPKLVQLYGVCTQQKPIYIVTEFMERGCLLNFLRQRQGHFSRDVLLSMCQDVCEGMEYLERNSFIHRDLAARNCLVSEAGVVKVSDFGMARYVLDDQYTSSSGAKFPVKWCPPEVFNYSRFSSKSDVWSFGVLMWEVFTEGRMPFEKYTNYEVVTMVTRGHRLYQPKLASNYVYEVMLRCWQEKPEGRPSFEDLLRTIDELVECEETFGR
Protocol: (§1) The following kinases were assayed according the table 4 below:
(§2) Compounds were tested in singlicates using 12 pt (3×-dilutions) dose response format with top concentration of 10 mM or 1 mM.

JAK3 = target: T2, JAK3 (Homo sapiens, UniProt P52333); experiment: as above; format: biochemical; settings: [Enzyme] 2 nM, [ATP] 2 μM, inc time 3 hr
T2 construct: purchased INVITROGEN PV3855
Protocol: as §1, §2

ITK = target: T3, ITK (Homo sapiens, UniProt Q08881); experiment: as above; format: biochemical; settings: [Enzyme] 1 nM, [ATP] 50 μM, inc time 3 hr
T3 construct: endogenous in cells; host or cells: Jurkat cell lysate
T3 sequence (Q08881 1-620): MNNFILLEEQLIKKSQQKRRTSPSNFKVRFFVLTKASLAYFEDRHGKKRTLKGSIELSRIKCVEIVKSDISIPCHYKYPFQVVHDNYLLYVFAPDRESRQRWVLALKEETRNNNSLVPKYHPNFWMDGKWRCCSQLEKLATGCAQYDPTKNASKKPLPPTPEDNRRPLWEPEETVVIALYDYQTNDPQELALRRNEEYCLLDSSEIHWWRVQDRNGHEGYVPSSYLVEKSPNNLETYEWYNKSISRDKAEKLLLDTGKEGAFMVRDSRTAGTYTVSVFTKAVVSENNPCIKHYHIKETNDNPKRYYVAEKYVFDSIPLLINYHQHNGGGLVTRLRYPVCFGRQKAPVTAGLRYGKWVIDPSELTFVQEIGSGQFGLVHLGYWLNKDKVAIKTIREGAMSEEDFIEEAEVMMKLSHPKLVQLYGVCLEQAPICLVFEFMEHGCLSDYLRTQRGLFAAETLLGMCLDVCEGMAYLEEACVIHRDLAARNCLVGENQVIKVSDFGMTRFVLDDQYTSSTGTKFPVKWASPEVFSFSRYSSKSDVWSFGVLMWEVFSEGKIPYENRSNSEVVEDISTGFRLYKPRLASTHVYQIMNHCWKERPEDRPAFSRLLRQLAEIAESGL
Protocol: as §1, §2

SRC = target: T4, SRC (Homo sapiens, UniProt P12931); experiment: as above; format: biochemical; settings: [Enzyme] 3 nM, [ATP] 25 μM, inc time 1 hr
T4 construct: purchased INVITROGEN P3044
Protocol: as §1, §2

BTK [1] = target: T5, BTK (Homo sapiens, UniProt Q06187); experiment: as above; format: biochemical; settings: [Enzyme] 0.95 nM, [ATP] 20 μM, inc time 1 hr
Protocol: as §1, §2

BLK = target: T6, BLK (Homo sapiens, UniProt P51451); experiment: as above; format: biochemical; settings: [Enzyme] 0.4 nM, [ATP] 20 μM, inc time 1 hr
T6 construct: purchased BPS 40401
Protocol: as §1, §2

BMX = target: T7, BMX (Homo sapiens, UniProt P51813); experiment: as above; format: biochemical; settings: [Enzyme] 1.82 nM, [ATP] 75 μM, inc time 1 hr
T7 construct: purchased BPS 40402
T7 sequence (P51813 1-675): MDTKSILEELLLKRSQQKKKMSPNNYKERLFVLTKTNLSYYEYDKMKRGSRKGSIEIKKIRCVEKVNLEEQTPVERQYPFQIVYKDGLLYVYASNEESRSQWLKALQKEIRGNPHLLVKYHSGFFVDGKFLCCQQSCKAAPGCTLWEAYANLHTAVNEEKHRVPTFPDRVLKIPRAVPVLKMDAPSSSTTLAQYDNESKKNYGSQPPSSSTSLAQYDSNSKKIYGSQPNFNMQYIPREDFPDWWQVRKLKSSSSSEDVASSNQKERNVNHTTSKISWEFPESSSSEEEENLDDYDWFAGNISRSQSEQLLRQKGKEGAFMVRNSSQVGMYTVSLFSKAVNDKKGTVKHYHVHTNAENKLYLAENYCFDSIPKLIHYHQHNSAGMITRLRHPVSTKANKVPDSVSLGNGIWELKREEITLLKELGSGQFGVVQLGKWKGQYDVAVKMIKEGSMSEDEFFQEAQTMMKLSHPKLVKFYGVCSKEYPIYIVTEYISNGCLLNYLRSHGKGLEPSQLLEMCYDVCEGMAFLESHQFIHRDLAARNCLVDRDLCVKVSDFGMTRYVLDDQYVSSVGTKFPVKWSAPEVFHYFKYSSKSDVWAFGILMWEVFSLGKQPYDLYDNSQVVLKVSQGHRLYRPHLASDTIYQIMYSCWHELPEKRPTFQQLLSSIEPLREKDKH
Protocol: as §1, §2

LCK = target: T8, LCK (Homo sapiens, UniProt P06239); experiment: as above; format: biochemical; settings: [Enzyme] 0.4 nM, [ATP] 50 μM, inc time 1 hr
T8 construct: purchased INVITROGEN P3043
Protocol: as §1, §2

BTK [2] = target: T5, BTK; experiment: Comparison of biotinylated probes, streptavidin coated plate BTK occupancy assay; format: binding; design: Positive Control lysates from BTK expressing cell line (DOHH2); endogenous in cells; host or cells: DOHH2 cell lysate; settings: DOHH2 lysate, high and low probe concentrations
Protocol: Selected biotinylated probes were tested for use in target occupancy assays using either the anti-protein antibody coated plate or streptavidin coated plate assay formats. The following probes were tested:
Stock solutions (5 mM and 10 mM) of the probes were prepared as follows. […] For the assays 50× probe was prepared fresh the day of the assay: 1 μl of 5 mM probe to […] PBS.
1) Dilute lysate to desired concentration with PBS to final volume of 500 μl
2) Add Biotinylated probe (final concentration 2.5 μM) to lysate, 37 C for 1 hr
3) Block streptavidin plate w/ 1% BSA, RT, 1 hr, wash w/ PBST 3×
4) Stop reaction by transfer samples onto ice for 10 min, then bring back to RT
5) Add 100 ul treated lysate (in triplicate) to streptavidin plate, RT, 2 hr w/ rocking
6) Wash with 200 μl PBST, 5×
7) Add 100 μl 2nd Ab-HRP, incubate at RT for 1 hr
8) Wash with 200 μl PBST, 3×
9) Add 100 μl TMB, incubate at RT for 10 min
10) Add 50 μl stop solution

T5 sequence (Q06187 whole entry): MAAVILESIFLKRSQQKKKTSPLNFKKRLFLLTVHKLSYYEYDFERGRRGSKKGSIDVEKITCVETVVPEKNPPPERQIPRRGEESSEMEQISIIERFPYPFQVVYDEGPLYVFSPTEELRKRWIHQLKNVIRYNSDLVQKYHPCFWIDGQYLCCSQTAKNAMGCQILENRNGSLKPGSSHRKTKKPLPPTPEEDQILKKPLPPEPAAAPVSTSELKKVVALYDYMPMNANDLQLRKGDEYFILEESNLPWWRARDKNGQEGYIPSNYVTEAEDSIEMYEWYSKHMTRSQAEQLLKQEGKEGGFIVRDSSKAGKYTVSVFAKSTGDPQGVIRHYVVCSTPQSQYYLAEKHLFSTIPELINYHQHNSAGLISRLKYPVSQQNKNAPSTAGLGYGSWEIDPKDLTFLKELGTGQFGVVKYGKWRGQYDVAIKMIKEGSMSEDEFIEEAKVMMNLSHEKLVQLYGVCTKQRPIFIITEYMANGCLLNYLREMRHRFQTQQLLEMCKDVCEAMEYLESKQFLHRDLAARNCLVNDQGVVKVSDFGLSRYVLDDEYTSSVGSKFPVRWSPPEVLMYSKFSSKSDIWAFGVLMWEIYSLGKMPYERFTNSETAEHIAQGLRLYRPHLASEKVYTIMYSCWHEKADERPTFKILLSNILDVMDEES
T6 sequence (P51451 whole entry): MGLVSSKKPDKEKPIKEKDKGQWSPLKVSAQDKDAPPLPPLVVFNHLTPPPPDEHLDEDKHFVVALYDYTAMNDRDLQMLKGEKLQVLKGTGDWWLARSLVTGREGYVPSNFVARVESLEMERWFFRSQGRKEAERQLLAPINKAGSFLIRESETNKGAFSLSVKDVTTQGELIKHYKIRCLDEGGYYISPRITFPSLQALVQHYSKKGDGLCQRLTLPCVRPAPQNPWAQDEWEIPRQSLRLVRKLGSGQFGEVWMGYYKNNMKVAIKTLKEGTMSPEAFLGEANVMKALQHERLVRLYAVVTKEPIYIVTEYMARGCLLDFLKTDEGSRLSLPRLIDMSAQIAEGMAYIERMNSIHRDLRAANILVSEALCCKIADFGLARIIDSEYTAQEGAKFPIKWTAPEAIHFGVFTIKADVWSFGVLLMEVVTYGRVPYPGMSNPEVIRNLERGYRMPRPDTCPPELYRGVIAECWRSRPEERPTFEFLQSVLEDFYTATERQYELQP
T2 sequence (P52333 781-1124 limits assumed): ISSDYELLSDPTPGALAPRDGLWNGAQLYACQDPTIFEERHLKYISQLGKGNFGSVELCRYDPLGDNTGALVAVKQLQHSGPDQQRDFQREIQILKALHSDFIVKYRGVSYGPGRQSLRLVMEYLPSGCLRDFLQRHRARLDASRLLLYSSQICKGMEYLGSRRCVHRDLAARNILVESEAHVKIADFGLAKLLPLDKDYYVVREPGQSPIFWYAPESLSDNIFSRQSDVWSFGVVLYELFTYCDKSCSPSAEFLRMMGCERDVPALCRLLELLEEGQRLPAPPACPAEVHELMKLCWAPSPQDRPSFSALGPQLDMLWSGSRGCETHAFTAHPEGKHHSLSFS
T4 sequence (P12931 whole entry): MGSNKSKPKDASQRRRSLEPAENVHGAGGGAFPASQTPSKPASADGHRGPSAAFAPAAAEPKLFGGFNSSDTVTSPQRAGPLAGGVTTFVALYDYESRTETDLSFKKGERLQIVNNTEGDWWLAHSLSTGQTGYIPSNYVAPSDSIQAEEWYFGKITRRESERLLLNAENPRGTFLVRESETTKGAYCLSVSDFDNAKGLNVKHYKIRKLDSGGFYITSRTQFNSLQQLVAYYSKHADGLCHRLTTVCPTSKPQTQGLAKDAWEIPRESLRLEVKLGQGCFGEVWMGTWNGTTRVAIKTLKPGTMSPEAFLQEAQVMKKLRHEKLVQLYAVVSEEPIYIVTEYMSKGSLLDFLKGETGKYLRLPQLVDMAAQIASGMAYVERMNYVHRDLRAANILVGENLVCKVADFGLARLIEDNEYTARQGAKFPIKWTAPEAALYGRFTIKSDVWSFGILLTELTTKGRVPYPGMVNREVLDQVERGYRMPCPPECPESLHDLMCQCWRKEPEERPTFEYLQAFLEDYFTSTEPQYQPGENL
T8 sequence (P06239 whole entry): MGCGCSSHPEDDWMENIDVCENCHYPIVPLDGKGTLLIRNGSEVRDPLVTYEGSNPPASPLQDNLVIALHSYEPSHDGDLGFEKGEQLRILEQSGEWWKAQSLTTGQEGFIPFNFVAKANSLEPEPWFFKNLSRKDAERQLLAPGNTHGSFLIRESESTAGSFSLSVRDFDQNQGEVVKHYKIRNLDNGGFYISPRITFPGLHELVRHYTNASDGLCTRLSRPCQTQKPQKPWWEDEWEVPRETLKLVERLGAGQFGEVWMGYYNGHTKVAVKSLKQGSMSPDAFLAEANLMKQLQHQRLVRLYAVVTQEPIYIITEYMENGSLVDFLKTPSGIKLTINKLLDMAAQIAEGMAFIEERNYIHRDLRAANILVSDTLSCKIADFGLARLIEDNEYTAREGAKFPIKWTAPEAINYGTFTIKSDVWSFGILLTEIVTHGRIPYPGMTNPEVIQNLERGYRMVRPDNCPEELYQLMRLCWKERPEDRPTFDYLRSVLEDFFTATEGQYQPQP

Which results are given for `CN(C/C=C/C(=O)N1CCC[C@@H](n2nc(-c3ccc(Oc4ccccc4)cc3)c3c(N)ncnc32)C1)CCCCNC(=O)CCCC(=O)NCCCOCCOCCOCCCNC(=O)CCCC[C@@H]1SC[C@@H]2NC(=O)N[C@@H]21` [Compound I-5]?
IC50 (TEC): 2.29 nM and 1.71 nM; IC50 (JAK3): 4870 nM and 5340 nM; IC50 (ITK): 198 nM and 187 nM; IC50 (SRC): 36.3 nM and 33.8 nM; IC50 (BTK [1]): 1.02 nM and 0.755 nM; IC50 (BLK): 4.27 nM and 3.66 nM; IC50 (BMX): 5.57 nM and 4.42 nM; IC50 (LCK): 6.92 nM and 5.99 nM; signal for binding to BTK out of the probes tested (BTK [2]): highest signal

— US20150260723A1, “COMPANION DIAGNOSTICS FOR TEC FAMILY KINASE INHIBITOR THERAPY” (PHARMACYCLICS, INC., priority 2012, published 2015)
